# Measurements reported in PubChem BioAssay (NCI).
#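 Following 48 hours of exposure in 96-well plates, responses at five concentrations were used to interpolate endpoints linearly. Definition used: TGI = concentration required for complete inhibition of growth.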
# Assays:
# Test in all cases: NCI tumour cell line growth inhibition, 48 h
# [1] = test system: T-47D breast
# [2] = test system: SK-MEL-2 melanoma
# [3] = test system: HCC-2998 colon
# [4] = test system: K-562 leukemia
# [5] = test system: A549 NSCLC
# [6] = test system: PC-3 prostate
# [7] = test system: LOX IMVI melanoma
# [8] = test system: HL-60(TB) leukemia
# [9] = test system: SK-OV-3 ovarian
# [10] = test system: NCI-H226 lung
# [11] = test system: SN12C renal
# [12] = test system: NCI/ADR-RES ovarian
# [13] = test system: SW-620 colon
# [14] = test system: M14 melanoma
# [15] = test system: MDA-MB-231 breast
# [16] = test system: DU-145 prostate
SMILES,TGI [1] [µM],TGI [2] [µM],TGI [3] [µM],TGI [4] [µM],TGI [5] [µM],TGI [6] [µM],TGI [7] [µM],TGI [8] [µM],TGI [9] [µM],TGI [10] [µM],TGI [11] [µM],TGI [12] [µM],TGI [13] [µM],TGI [14] [µM],TGI [15] [µM],TGI [16] [µM]
C/C(=N\NC(=O)c1ccncc1)c1ccccc1F,> 10,> 10,> 10,> 10,> 10,> 10,> 10,> 10,> 10,> 10,> 10,> 10,> 10,> 10,,
Cc1ccc(C2=C(C#N)C(=O)N3CCN=C3S2)cc1,> 100,> 100,> 100,> 100,> 100,> 100,> 100,,> 100,> 100,> 100,> 100,> 100,> 100,> 100,> 100
COC(=O)C1(C(=O)OC)Cc2ccc(C)cc2C2=C1C(=O)c1ccccc1C2=O,29.9,30.7,,46.5,> 100,31.3,39.9,> 100,,> 100,48.1,80.1,45.8,,33,36.9
CCN(CC)c1c(-c2c(N(CC)CC)c(OC(C)=O)c3sccn3c2=O)c(=O)n2ccsc2c1OC(C)=O,,> 100,> 100,> 100,,> 100,> 100,> 100,> 100,> 100,> 100,> 100,> 100,> 100,57,> 100
COc1ccc(C2=NN(C(N)=S)C(c3ccccc3)C2)cc1 (stereo unspecified),> 100,78.4,> 100,> 100,> 100,97.5,> 100,52.9,> 100,> 100,> 100,> 100,> 100,> 100,,> 100
Cc1ccc(/C=C2\CN(C)CC3C2=NN(c2ccccc2)C3c2ccc(C)cc2)cc1 (stereo unspecified),> 100,> 100,> 100,> 100,> 100,> 100,> 100,,> 100,> 100,> 100,> 100,> 100,> 100,> 100,> 100
CC(=O)N1C(NN(C)C)CCN1c1ccccc1 (stereo unspecified),> 10,,> 10,> 10,> 10,> 10,,> 10,> 10,,> 10,,> 10,> 10,> 10,> 10
O=[N+]([O-])c1cc2c(c([N+](=O)[O-])c1)NCc1ccccc1O2,> 100,> 100,> 100,,> 100,> 100,> 100,> 100,,> 100,> 100,> 100,> 100,,> 100,> 100
Cc1ccc(C2SC(N)=Nc3c2c(C)nn3C(=O)c2ccccc2O)cc1 (stereo unspecified),> 10,> 10,,> 10,> 10,> 10,> 10,,> 10,> 10,> 10,> 10,> 10,> 10,> 10,> 10
O=S(Nc1ccccc1)c1ccc(Cl)c(Cl)c1 (stereo unspecified),42.4,> 100,> 100,> 100,> 100,,> 100,> 100,,> 100,> 100,> 100,> 100,> 100,> 100,> 100
C=CCc1ccccc1CC1(OCC)OC(=O)c2ccccc21 (stereo unspecified),> 100,> 100,> 100,> 100,> 100,> 100,,,> 100,> 100,> 100,,> 100,> 100,> 100,> 100
S=C1CSc2c(ccc3ccccc23)N1,> 100,,,> 100,> 100,> 100,> 100,> 100,> 100,> 100,> 100,> 100,,> 100,> 100,> 100
Cc1cc2nc(N3C(=O)/C(=C/c4ccccc4S)N=C3c3ccccc3)sc2cc1C,> 100,56.7,> 100,> 100,> 100,58.1,> 100,82,> 100,,82.6,92.3,> 100,> 100,86,> 100
Cc1ccc(N(C(=O)Nc2ccc(F)c(Cl)c2)C2=NCC(C)S2)cc1 (stereo unspecified),> 100,> 100,,> 100,> 100,> 100,> 100,73.2,> 100,,> 100,73.2,> 100,,> 100,> 100
COC(=O)c1c2c(cc3c1CC1(Cc4ccc(C(C)=O)cc4C1)C3)CCC2 (stereo unspecified),> 100,,,> 100,> 100,82.2,60.2,> 100,> 100,> 100,> 100,> 100,> 100,,> 100,> 100
Cc1c2c(Cl)c3c(c(Cl)c2c(C)c2c(Cl)c4c(c(Cl)c12)C(c1ccccc1)(c1ccccc1)C4(c1ccccc1)c1ccccc1)C(c1ccccc1)(c1ccccc1)C3(c1ccccc1)c1ccccc1,> 100,> 100,> 100,> 100,> 100,> 100,> 100,,> 100,> 100,> 100,> 100,> 100,> 100,> 100,> 100
